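Tested at 5 concentrations; 48 h exposure; 96-well plates; endpoints linearly interpolated, else capped at highest concentration. The concentration for 50% growth inhibition is given as GI50.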 Activity calls are given as the source filed them. Cut-off read from the data, not from the text of the source: active = GI50 below about 0.43 µM; inactive = the rest.
What was measured:
Experiment in all cases: growth of human tumour cells (NCI), 48 h
786-0 renal = system: 786-0 renal
A498 renal = system: A498 renal
A549 NSCLC = system: A549 NSCLC
ACHN renal = system: ACHN renal
BT-549 breast = system: BT-549 breast
CAKI-1 renal = system: CAKI-1 renal
CCRF-CEM leukemia = system: CCRF-CEM leukemia
COLO 205 colon = system: COLO 205 colon
DU-145 prostate = system: DU-145 prostate
EKVX NSCLC = system: EKVX NSCLC
HCT-116 colon = system: HCT-116 colon
HCT-15 colon = system: HCT-15 colon
HL-60(TB) leukemia = system: HL-60(TB) leukemia
HOP-62 NSCLC = system: HOP-62 NSCLC
HS 578T breast = system: HS 578T breast
HT29 colon = system: HT29 colon
IGROV1 ovarian = system: IGROV1 ovarian
K-562 leukemia = system: K-562 leukemia
KM12 colon = system: KM12 colon
LOX IMVI melanoma = system: LOX IMVI melanoma
M14 melanoma = system: M14 melanoma
MALME-3M melanoma = system: MALME-3M melanoma
MCF7 breast = system: MCF7 breast
MDA-MB-231 breast = system: MDA-MB-231 breast
MDA-MB-435 = system: MDA-MB-435
MOLT-4 leukemia = system: MOLT-4 leukemia
NCI-H226 lung = system: NCI-H226 lung
NCI-H23 lung = system: NCI-H23 lung
NCI-H460 lung = system: NCI-H460 lung
NCI-H522 lung = system: NCI-H522 lung
NCI/ADR-RES ovarian = system: NCI/ADR-RES ovarian
OVCAR-3 ovarian = system: OVCAR-3 ovarian
OVCAR-4 ovarian = system: OVCAR-4 ovarian
OVCAR-5 ovarian = system: OVCAR-5 ovarian
OVCAR-8 ovarian = system: OVCAR-8 ovarian
PC-3 prostate = system: PC-3 prostate
RPMI-8226 leukemia = system: RPMI-8226 leukemia
RXF 393 renal = system: RXF 393 renal
SF-268 CNS = system: SF-268 CNS
SF-295 CNS = system: SF-295 CNS
SF-539 CNS = system: SF-539 CNS
SK-MEL-2 melanoma = system: SK-MEL-2 melanoma
SK-MEL-28 melanoma = system: SK-MEL-28 melanoma
SK-MEL-5 melanoma = system: SK-MEL-5 melanoma
SK-OV-3 ovarian = system: SK-OV-3 ovarian
SN12C renal = system: SN12C renal
SNB-19 CNS = system: SNB-19 CNS
SNB-75 CNS = system: SNB-75 CNS
SR leukemia = system: SR leukemia
SW-620 colon = system: SW-620 colon
T-47D breast = system: T-47D breast
TK-10 renal = system: TK-10 renal
U251 CNS = system: U251 CNS
UACC-257 melanoma = system: UACC-257 melanoma
UACC-62 melanoma = system: UACC-62 melanoma
UO-31 renal = system: UO-31 renal

Measured: GI50

CS(C)(=O)=O
inactive: 786-0 renal | A498 renal 42 mM | A549 NSCLC | ACHN renal | BT-549 breast | CAKI-1 renal | CCRF-CEM leukemia | COLO 205 colon | DU-145 prostate | EKVX NSCLC | HCT-116 colon | HCT-15 colon | HL-60(TB) leukemia | HOP-62 NSCLC | HS 578T breast | HT29 colon | IGROV1 ovarian | K-562 leukemia | KM12 colon | LOX IMVI melanoma | M14 melanoma | MALME-3M melanoma | MCF7 breast | MDA-MB-231 breast | MDA-MB-435 | MOLT-4 leukemia | NCI-H226 lung | NCI-H23 lung | NCI-H460 lung | NCI-H522 lung | NCI/ADR-RES ovarian | OVCAR-3 ovarian | OVCAR-4 ovarian | OVCAR-5 ovarian | OVCAR-8 ovarian | PC-3 prostate | RPMI-8226 leukemia | RXF 393 renal | SF-268 CNS | SF-295 CNS | SF-539 CNS | SK-MEL-2 melanoma | SK-MEL-28 melanoma | SK-MEL-5 melanoma | SK-OV-3 ovarian | SN12C renal | SNB-19 CNS | SNB-75 CNS | SR leukemia | SW-620 colon | T-47D breast | TK-10 renal | U251 CNS | UACC-257 melanoma | UACC-62 melanoma | UO-31 renal
